Measurements taken from patent US6455504B1, “Pesticidal macrolides” (priority 1999, dated 2002).

Tests used:
[1] = system: Beet Armyworm (Spodoptera littoralis) larvae; assay: Beet Armyworm Topical Assay; type: in vivo; conditions: rate 1 ug/larva, 21° C.
Protocol: B. Beet Armyworm (Spodoptera littoralis) Topical Assay.
An additional measure of the relative insecticidal activities of the formula 1 compounds was generated by using a 1 μg/μL methanol solution of each compound applied at 1 μL per larva of laboratory-reared Spodoptera littoralis, (mean wt of 43 mg). Each compound was applied along the dorsum of each of six larvae. Treated larvae were then held for five days at 21° C., 60% RH in six well plastic culture plates. Larvae were each supplied with a 1 cm^3 of agar-based lepidoptera diet for sustenance during the 5-day post-exposure interval. Percent mortality was determined at the end of a five day period.

[2] = system: adult stable fly; assay: In vivo Mouse/Adult Stable Fly (ASF) Assay; parameters: species or system adult stable fly fed on mice (Mus musculus); conditions: mice dosed 100 mg/kg, orally or topically
Protocol: On Study Day 0, six, thirty-gram, white laboratory mice (Mus musculus) (8-10 week old, ICR females, Harlan-Sprague-Dawley, Inc., Indianapolis, Ind.) per treatment were dosed with test article or solvent (90% ethyl oleate/10% DMSO), either orally or topically. On Study Day 1, two mice from each treatment were anesthetized with a 0.25 mL intramuscular injection of a combination of 1.0 mL ketamine (Fort Dodge, Ketaset®, ketamine HCl injection, 100 mg/mL) and 1.0 mL xylazine (Bayer, Rompun®, 20 mg/mL injectable) in 4.5 mL sterile water. The anesthetized mice were placed in the fly boxes containing 30 adult stable fly. The anesthetized mice were left in the boxes for up to 60 minutes and the flies allowed to obtain a blood meal undisturbed. After removal from the fly boxes, the unconscious mice were immediately euthanized with CO2. The fly boxes were exposed to a 12-our day/12-hour night cycle for the entire study period. The temperature in the assay room was 68-72° F. and the humidity was 50-60%. These procedures were repeated exactly on Study Days 2 and 3 with the remaining treated mice. Each day the number of dead flies was recorded and fly boxes discarded. Total percent fly mortality was determined for each treatment and compared to fly mortality of continuously fed ASF and ASF fed on solvent treated control mice.

[3] = system: larval blowfly (Phormia regina); assay: In vitro Larval Blow Fly Assay; parameters: key to efficacy by visual inspection for larvae movement: A indicates mortality as indicated by absence of larvae movement; N indicates that larvae movement was observed; conditions: for efficacy by visual inspection for larvae movement: up to 48 hours
Protocol: Filter inserts were placed individually in 96-well mictrotiter plates. Each insert was saturated with bovine serum combined with titrated levels of experimental compounds starting at 100 ppm. Approximately 30 larval blowfly (Phormia regina) were placed each well and the entire plate sealed. The plates were incubated for up to 48 hours incubation at approximately 25° C. and 75-85% humidity after which efficacy was determined by visual inspection of each well for larvae movement. The results of testing compounds 1 and 8 are as follows (both compounds were active above 5 ppm): […]

[4] = system: adult stable flies (Stomoxys calcitrans); assay: In vitro Adult Stable Fly Assay
Protocol: Dental wicks were saturated with serum containing titrated levels of experimental compounds starting at 100 ppm. The dental wicks were placed in petri dishes along with 10 adult stable flies (Stomoxys calcitrans) previously chilled for easier handling. Percent mortality was determined after 24 and 48 hours incubation at approximately 25° C. and 75-85% humidity when compared to a dish containing a wick with control serum only.

[5] = system: larval ticks (Amblyomma americannum); assay: In vitro Tick Larval Packet Test (LPT) Assay; conditions: 24 hours
Protocol: Titrated levels of experimental compounds were dissolved in a combination of olive oil and trichloroethylene and pipetted onto squares of laboratory filter paper. After allowing about an hour for the trichloroethylene to evaporate, the filter papers were folded in half and two sides secured with clamps, forming packets.
Approximately, 100 larval ticks (Amblyomma americannum) were placed inside each packet and the remaining open side secured with a clamp. The packets were incubated for 24 hours at approximately 72° F. and 95% humidity. Each packet was opened separately and the number of live and dead larvae determined. Percent mortality was determined for each compound.

[6] = system: Tobacco Budworm (Heliothis virescens) neonate larvae; assay: Tobacco Budworm Neonate Drench Assay; type: in vivo; conditions: rate 50 ppm, 27° C.
Protocol: A. Tobacco Budworm (Heliothis virescens) Neonate Drench Assay.
To compare insecticidal activities of formula 1 compounds in neonate (<6 hr post-eclosion) larval Heliothis virescens, 1 μg/μL acetone solutions of each of the metabolites were first prepared. The acetone solutions were then diluted with Millipore H2O containing 0.025% Triton X-100 surfactant to yield treatments of 25 or 50 ppm. One milliliter of either concentration of each metabolite was then pipetted directly over and onto a 100-mm diameter #1 Whatman qualitative filter paper circle upon which 20 tobacco budworm neonate larvae had been gently placed. Each treated filter paper and its associated larvae was then placed in a 20 mm×100 mm disposable plastic petri plate. One-hour later, a 1 cm^3 portion of agar-based lepidoptera diet (modified Shorey diet, Southland Products, Lake Village, Ariz.) was placed into each plate as a larval food source. The petri plate were held at 27° C. for 24 hr and then percent larval mortality in each treatment was determined.

## CCC=CC1CCCC(OC2CCC(NC)C(C)O2)C(C)C(=O)C2=CC3C(C=CC4CC(OC5OC(C)C(OC)C(OC)C5OC)CC43)C2CC(=O)O1 (stereo not drawn) [Compound 3]
[1]
  Beet Armyworm Topical (120 hr) Mortality (%): 100%

## CCC=CC1CCCC(OC2CCC(N(C)C)C(C)O2)C(C)C(=O)C2=CC3C(C=CC4C(O)C(OC5OC(C)C(OC)C(OC)C5OC)CC43)C2CC(=O)O1 (stereo not drawn) [Compound 8]
[2]; Study Day 2
  % mortality Day 2: 46%
[2]; Study Day 3
  % mortality Day 3: 76%
[2]; flies fed on Study Day 1
  % mortality Day 1: 13%
[2]; total percent fly mortality
  % mortality Total: 76%
[3]; 0.15 ppm in bovine serum
  efficacy by visual inspection for larvae movement: N
[3]; 0.31 ppm in bovine serum
  efficacy by visual inspection for larvae movement: N
[3]; 0.62 ppm in bovine serum
  efficacy by visual inspection for larvae movement: N
[3]; 1.25 ppm in bovine serum
  efficacy by visual inspection for larvae movement: N
[3]; 2.5 ppm in bovine serum
  efficacy by visual inspection for larvae movement: N
[3]; 5 ppm in bovine serum
  efficacy by visual inspection for larvae movement: A
[3]; above 5 ppm (titrated from 100 ppm)
  activity against larval blowfly: active
[4]; 0.1 ppm in serum, 24 hr
  % mortality: 0%
[4]; 0.1 ppm in serum, 48 hr
  % mortality: 0%
[4]; 0.5 ppm in serum, 24 hr
  % mortality: 10%
[4]; 0.5 ppm in serum, 48 hr
  % mortality: 10%
[4]; 1.0 ppm in serum, 24 hr
  % mortality: 30%
[4]; 1.0 ppm in serum, 48 hr
  % mortality: 80%
[4]; 5.0 ppm in serum, 24 hr
  % mortality: 90%
[4]; 5.0 ppm in serum, 48 hr
  % mortality: 100%
[5]; 0.05%/500 ppm
  Percent mortality: 12.47%
[5]; 0.1%/1000 ppm
  Percent mortality: 69.87%
[5]; 0.5%/5000 ppm
  Percent mortality: 100%

## CCC=CC1CCCC(OC2CCC(N(C)C)C(C)O2)C(C)C(=O)C2=CC3C(C=C(C)C4CC(OC5OC(C)C(OC)C(OC)C5OC)CC43)C2CC(=O)O1 (stereo not drawn) [Compound 7]
[6]
  Tobacco Budworm Neonate Drench (24 hr) Mortality (%): 100%
